According to US12678509B2, “Inhibitor of apoptosis (IAP) protein antagonists” (Sanford Burnham Prebys Medical Discovery Institute, priority 2019, dated 2026):
Like-named read-outs stand apart in the source and are kept apart here.

How the values were obtained:
MOLM 13 = experiment: Cell viability (CellTiter-Glo), 6-day compound treatment; format: cell-based, Human; conditions: for IC50: Homo sapiens, MOLM-13, 144 h
Method in brief: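 Cells plated at 1700 per well, left overnight at 37° C./5% CO2, then exposed to 10-fold compound dilutions for 6 days […]. Viability by CellTiter-Glo luminescence; IC50 from nonlinear regression fit.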

SKOV-3 = experiment: Cell viability (CellTiter-Glo), 48 hrs; format: cell-based; conditions: Homo sapiens, SK-OV-3, 48 h, read-out: SKOV-3 Viability 48 h IC50
[1] = tested on: latently infected cell line Jurkat 2D10; experiment: Combination with other LRA, Bliss Independence model, GFP expression; format: cell-based; conditions: Jurkat 2D10, 48 hours, with JQ1, I-BET 151, Bryostatin, Ingenol-3-angelate
Procedure: Compound 18a was also tested in combination with other LRA reagents for synergistic activation of the latently infected cell line Jurkat 2D10. Jurkat 2D10 cells were treated with combinations of compound 18a and BET inhibitors (JQ1, I-BET 151) or PKC agonists (Bryostatin, Ingenol-3-angelate) for 48 hours. Reversal of HW latency was evaluated by analyzing GFP expression using flow cytometry. Synergy was assessed with the Bliss Independence model where the observed effect of a combination of compounds f12 is compared to the expected effect E(f12) that is calculated based on the observed effects of the individual compounds f1 and f2 using the formula E(f12)=f1+J2−(f1*f2). The difference between the observed effect of the combined compounds (f12) and the expected combined effect of the two compounds E(f12) is given as the excess over Bliss score (EOB). An EOB value greater than 0 indicates synergy between the compounds.

CN[C@@H](C)C(=O)N[C@H]1CCS[C@H]2CC(C)(C)[C@@H](C(=O)N[C@H]3c4ccccc4C[C@H]3OCC#CC#CCO[C@@H]3Cc4ccccc4[C@@H]3NC(=O)[C@H]3N4C(=O)[C@@H](NC(=O)[C@H](C)NC)CCS[C@H]4CC3(C)C)N2C1=O [Compound 18a, (2S)-1-{[(4S,7S,9aS)-74{(1S,2R)-2-[(6-{[(1S,2R)-1-({[(4S,7S,9aS)-8,8-Dimethyl-4-{[(2S)-2-(methylammonio)propanoyl]amino}-5-oxooctahydropyrrolo[2,1-b][1,3]thiazepin-7-yl]carbonyl}amino)-2,3-dihydro-1H-inden-2-yl]oxy}hexa-2,4-diyn-1-yl)oxy]-2,3-dihydro-1H-inden-1-yl}carbamoyl)-8,8-dimethyl-5-oxooctahydropyrrolo[2,1-b][1,3]thiazepinyl]amino}-N-methyl-1-oxopropan-2-ammonium dichloride]
IC50 (MOLM 13; read-out: IC50 6 d): 10 to 100 nM
IC50 (MOLM 13; read-out: MOLM 13 Viability 6 d IC50): 10 to 100 nM
Cell viability at max. concentration (MOLM 13; MOLM 13, 6 d): I (I<10%)
IC50 (SKOV-3): < 10 nM
synergy with LRA compounds in reversal of HIV latency [1]: synergizes with the tested LRA compounds to reverse HW latency
